Data on 38 compounds can be found in patent US20250262201A1, “COMPOUNDS AND METHODS USEFUL FOR STABILIZING PHENYLALANINE HYDROXYLASE MUTATIONS” (Agios Pharmaceuticals, Inc., priority 2022, published 2025).

Read-outs that look alike come from different tables or passages of the source. Where only a bound is given, the exact number is not on record here.

The target of this test is T1, human PAH with the R408W mutation (Homo sapiens, UniProt P00439, R408W).
T1 construct: expressed in transfected cells
T1 sequence (P00439 1-452 R408W): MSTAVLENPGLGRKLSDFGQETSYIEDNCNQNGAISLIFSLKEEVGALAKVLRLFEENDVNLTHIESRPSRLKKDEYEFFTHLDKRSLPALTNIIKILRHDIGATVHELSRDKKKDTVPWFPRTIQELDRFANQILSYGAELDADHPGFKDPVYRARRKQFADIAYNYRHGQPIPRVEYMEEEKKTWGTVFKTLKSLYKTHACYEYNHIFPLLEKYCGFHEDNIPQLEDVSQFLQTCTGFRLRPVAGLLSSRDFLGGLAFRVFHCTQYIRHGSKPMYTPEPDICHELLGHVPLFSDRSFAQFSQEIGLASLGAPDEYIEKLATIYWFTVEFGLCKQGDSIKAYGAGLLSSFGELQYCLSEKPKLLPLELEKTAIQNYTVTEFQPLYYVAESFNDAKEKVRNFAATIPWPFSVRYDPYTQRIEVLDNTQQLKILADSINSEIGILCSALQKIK
The experiment in a line: Cell Based Phenylalanine Flux Assay. Also on record: scale not given here. To be noted: 13C-Tyrosine by LC-MS, average where tested multiple times.

Setting [1] is: A375 cells expressing human R408W PAH, 24 hrs compound incubation, read-out: AC50.
Where [2] appears, read: A375 R408W cells, 24 hrs with compound, then 20 μM sepiapterin and 800 μM 13C9,15N-Phenylalanine for 4 hours, read-out: AC50.

`O=C(c1nnc(-c2ccn(C(F)F)n2)o1)N1CCc2[nH]cnc2[C@H]1c1ncc2ccccc2n1` [Example 189, (S)-(5-(1-(difluoromethyl)-1H-pyrazol-3-yl)-1,3,4-oxadiazol-2-yl)(4-(quinazolin-2-yl)-6,7-dihydro-1H-imidazo[4,5-c]pyridin-5(4H)-yl)methanone]: under setting [1], the AC50 was < 0.5 µM.
On the same count and under the same terms, the same measure for `Cn1cc(-c2nnc(C(=O)N3CCc4[nH]cnc4[C@@H]3c3cc4ccccc4cn3)o2)cn1` [Example 323, (S)-(4-(isoquinolin-3-yl)-6,7-dihydro-1H-imidazo[4,5-c]pyridin-5(4H)-yl)(5-(1-methyl-1H-pyrazol-4-yl)-1,3,4-oxadiazol-2-yl)methanone]: > 5 µM.
Take `Cc1nnc(C(=O)N2CCc3[nH]cnc3C2c2ccc3ccccc3n2)o1` (centres unmarked): the AC50 under setting [2] is 1 to 5 µM.
Take `C[C@H]1CN(C(=O)c2cnco2)[C@H](c2cc3ccccc3cn2)c2nc[nH]c21` [Example 503, ((4R,7S)-4-(isoquinolin-3-yl)-7-methyl-6,7-dihydro-1H-imidazo[4,5-c]pyridin-5(4H)-yl)(oxazol-5-yl)methanone]: under setting [1], the AC50 lay within 0.5 to 1 µM.
Take `Cn1ncnc1C(=O)N1CCc2[nH]cnc2[C@@H]1c1ccc2ccccc2n1` [Example 79]: under setting [1], the AC50 is > 5 µM.
As to `CC(C)(O)c1cc(C(=O)N2CCc3[nH]cnc3C2c2ccc3ccccc3n2)[nH]n1` (centres unmarked), the AC50 under setting [2] is > 5 µM.
`O=C(c1nnc(-c2ccccn2)o1)N1CCc2[nH]cnc2[C@H]1c1ncc2ccccc2n1` [Example 145, (S)-(5-(pyridin-2-yl)-1,3,4-oxadiazol-2-yl)(4-(quinazolin-2-yl)-6,7-dihydro-1H-imidazo[4,5-c]pyridin-5(4H)-yl)methanone]: the AC50 under setting [1] was < 0.5 µM.
Same read-out and setting: under `Cc1nnc(CC(=O)N2CCc3[nH]cnc3[C@H]2c2cc3ccccc3cn2)s1` [Example 351, (R)-1-(4-(isoquinolin-3-yl)-6,7-dihydro-1H-imidazo[4,5-c]pyridin-5(4H)-yl)-2-(5-methyl-1,3,4-thiadiazol-2-yl)ethanone] stands 0.5 to 1 µM.
As for `CC1CN(C(=O)c2oc(-c3ccccn3)nc2C(F)(F)F)C(c2cc3ccccc3cn2)c2nc[nH]c21` (centres unmarked), the AC50 under setting [2] was in the range of 0.5 to 1 µM.
Same read-out and setting: under `Cc1nc(CCN2CC(F)C2)oc1C(=O)N1CCc2[nH]cnc2C1c1ccc2ccccc2n1` (centres unmarked) stands 1 to 5 µM.
For the compound `Cn1nc(C(F)F)nc1C(=O)N1CCc2[nH]cnc2C1c1cc2ccccc2nn1` (centres unmarked), the concentration at half-maximal activity (AC50) under setting [2] lay in the range of 1 to 5 µM.
On to `O=C(c1nnc(-c2cc(C(F)(F)F)ccn2)o1)N1CCc2[nH]cnc2C1c1ccc2ccccc2n1` (stereo in doubt) [Example 108, (S)-(4-(quinolin-2-yl)-6,7-dihydro-1H-imidazo[4,5-c]pyridin-5(4H)-yl)(5-(4-(trifluoromethyl)pyridin-2-yl)-1,3,4-oxadiazol-2-yl)methanone], for which, under setting [1], the AC50 was in the range of 1 to 5 µM.
Consider `CC(C)(O)c1ncc(C(=O)N2CCc3[nH]cnc3[C@@H]2c2cc3ccccc3cn2)s1` [Example 329, (S)-(2-(2-hydroxypropan-2-yl)thiazol-5-yl)(4-(isoquinolin-3-yl)-6,7-dihydro-1H-imidazo[4,5-c]pyridin-5(4H)-yl)methanone], for which the AC50 under setting [1] is > 5 µM.
`Cc1cc(F)ccc1-c1nnc(C(=O)N2CCc3[nH]cnc3C2c2ccc3ccccc3n2)o1` (centres unmarked): the AC50 under setting [2] fell in the range of 1 to 5 µM.
As to `O=C(c1cnn2cc(C3CC3)ccc12)N1CCc2[nH]cnc2[C@H]1c1cc2ccccc2cn1` [Example 452, (R)-(6-cyclopropylpyrazolo[1,5-a]pyridin-3-yl)(4-(isoquinolin-3-yl)-6,7-dihydro-1H-imidazo[4,5-c]pyridin-5(4H)-yl)methanone], the AC50 under setting [1] was < 0.5 µM.
As to `Cc1nc(-c2cnn(C)c2)oc1C(=O)N1CCc2[nH]cnc2C1c1ccc2ccccc2n1` (stereo in doubt) [Example 25, (S)-(4-methyl-2-(1-methyl-1H-pyrazol-4-yl)oxazol-5-yl)(4-(quinolin-2-yl)-6,7-dihydro-1H-imidazo[4,5-c]pyridin-5(4H)-yl)methanone], the AC50 under setting [1] is > 5 µM.
Take `CN(C)c1ccc2c(C(=O)N3CCc4[nH]cnc4[C@H]3c3cc4ccccc4cn3)cnn2c1` [Example 470, (R)-(6-(dimethylamino)pyrazolo[1,5-a]pyridin-3-yl)(4-(isoquinolin-3-yl)-6,7-dihydro-1H-imidazo[4,5-c]pyridin-5(4H)-yl)methanone]: the AC50 under setting [1] was < 0.5 µM.
Still for that read-out and setting: the same measure for `O=C(c1ncn2ccccc12)N1CCc2[nH]cnc2[C@H]1c1cc2ccccc2cn1` [Example 353, (R)-imidazo[1,5-a]pyridin-1-yl(4-(isoquinolin-3-yl)-6,7-dihydro-1H-imidazo[4,5-c]pyridin-5(4H)-yl)methanone]: < 0.5 µM.
As for `O=C(c1oc(-c2ccccn2)nc1C1CC1)N1CCc2nc[nH]c2C1c1cn2ccccc2n1` (centres unmarked), the AC50 under setting [2] was 1 to 5 µM.
Consider `O=C(c1cnc(-c2ccccn2)o1)N1CCc2[nH]cnc2C1c1ccc2ccccc2n1` (stereo in doubt) [Example 61, (R)-(2-(pyridin-2-yl)oxazol-5-yl)(4-(quinolin-2-yl)-6,7-dihydro-1H-imidazo[4,5-c]pyridin-5(4H)-yl)methanone], for which the AC50 under setting [1] lay within 0.5 to 1 µM.
`CC(C)(O)c1ncc(C(=O)N2CCc3[nH]cnc3[C@H]2c2cc3ccccc3cn2)s1` [Example 328, (R)-(2-(2-hydroxypropan-2-yl)thiazol-5-yl)(4-(isoquinolin-3-yl)-6,7-dihydro-1H-imidazo[4,5-c]pyridin-5(4H)-yl)methanone]: under setting [1], the AC50 fell in the range of 0.5 to 1 µM.
As for `O=C(c1cnc(-c2ccccn2)o1)N1CCc2[nH]cnc2[C@@H]1c1cc2ccccc2nn1` (single isomer, unassigned), the AC50 under setting [2] is > 5 µM.
Same read-out and setting: the same measure for `Cc1nc(N2CCC(F)CC2)oc1C(=O)N1CCc2[nH]cnc2C1c1ccc2ccccc2n1` (centres unmarked): 1 to 5 µM.
Regarding `Cc1nc(-c2ccccn2)oc1C(=O)N1C[C@H](C)c2[nH]cnc2[C@@H]1c1cc2ccccc2cn1` [Example 404, ((4S,7S)-4-(isoquinolin-3-yl)-7-methyl-6,7-dihydro-1H-imidazo[4,5-c]pyridin-5(4H)-yl)(4-methyl-2-(pyridin-2-yl)oxazol-5-yl)methanone], the AC50 under setting [1] is > 5 µM.
For the compound `C[C@H]1CN(C(=O)c2ocnc2C2CC2)[C@@H](c2cc3ccccc3cn2)c2nc[nH]c21` [Example 507, (4-cyclopropyloxazol-5-yl)((4S,7S)-4-(isoquinolin-3-yl)-7-methyl-6,7-dihydro-1H-imidazo[4,5-c]pyridin-5(4H)-yl)methanone], the AC50 under setting [1] lay within 1 to 5 µM.
As to `CC1CN(C(=O)c2nnc(-c3cnn(C)c3)o2)C(c2cc3ccccc3cn2)c2nc[nH]c21` (centres unmarked), under setting [2], the AC50 is > 5 µM.
On to `Cc1nc(-c2cnn(C)c2)oc1C(=O)N1CCc2[nH]cnc2[C@H]1c1ccc2ccccc2n1` [Example 26], for which the AC50 under setting [1] is < 0.5 µM.
Consider `O=C(c1ocnc1C1CC1)N1CCCc2[nH]cnc2C1c1cc2ccccc2cn1` (centres unmarked), for which the AC50 under setting [2] is > 5 µM.
Take `O=C(c1oc(C2(O)CC2)nc1C(F)F)N1CCc2[nH]cnc2C1c1ccc2ccccc2n1` (stereo in doubt) [Example 129, (S)-(4-(difluoromethyl)-2-(1-hydroxycyclopropyl)oxazol-5-yl)(4-(quinolin-2-yl)-6,7-dihydro-1H-imidazo[4,5-c]pyridin-5(4H)-yl)methanone]: the AC50 under setting [1] lay within 1 to 5 µM.
For `Cn1cc(-c2nc(C(F)(F)F)c(C(=O)N3CCc4[nH]cnc4C3c3ncc4ccccc4n3)o2)cn1` (centres unmarked), the AC50 entry (A375 R408W cells, 24 hrs with compound, then 20 μM sepiapterin and 800 μM 13C9,15N-Phenylalanine for 4 hours) is reported as “E, E”.
Take `O=C(c1oc(C2CC2)nc1C(F)F)N1CCc2[nH]cnc2C1c1ccc2ccccc2n1` (centres unmarked): the AC50 under setting [2] fell in the range of 1 to 5 µM.
`CC(C)(O)c1cc(C(=O)N2CCc3[nH]cnc3C2c2ccc3ccccc3n2)on1` (centres unmarked): the AC50 under setting [2] was > 5 µM.
With `O=C(c1nnc(N2CCOCC2)o1)N1CCc2[nH]cnc2C1c1ncc2ccccc2n1` (centres unmarked), the AC50 under setting [2] lay within 1 to 5 µM.
`Cc1nc(N2CCOCC2)oc1C(=O)N1CCc2[nH]cnc2C1c1ccc2ccccc2n1` (centres unmarked): the AC50 under setting [2] was 1 to 5 µM.
Turning to `O=C(c1cnn2cc(-c3ncccn3)ccc12)N1CCc2[nH]cnc2[C@H]1c1cc2ccccc2cn1` [Example 483, (R)-(4-(isoquinolin-3-yl)-6,7-dihydro-1H-imidazo[4,5-c]pyridin-5(4H)-yl)(6-(pyrimidin-2-yl)pyrazolo[1,5-a]pyridin-3-yl)methanone], under setting [1], the AC50 was < 0.5 µM.
On the same count and under the same terms, under `O=C(c1nnc(-c2ccc(F)cc2)o1)N1CCc2[nH]cnc2[C@@H]1c1cc2ccccc2cn1` [Example 343, (S)-(5-(4-fluorophenyl)-1,3,4-oxadiazol-2-yl)(4-(isoquinolin-3-yl)-6,7-dihydro-1H-imidazo[4,5-c]pyridin-5(4H)-yl)methanone] stands > 5 µM; under `Cn1nc(C(F)F)nc1C(=O)N1CCc2[nH]cnc2[C@H]1c1cc2ccccc2cn1` [Example 423, (R)-(3-(difluoromethyl)-1-methyl-1H-1,2,4-triazol-5-yl)(4-(isoquinolin-3-yl)-6,7-dihydro-1H-imidazo[4,5-c]pyridin-5(4H)-yl)methanone], < 0.5 µM.
As to `Cc1nc(-c2ccccn2)oc1C(=O)N1CCc2[nH]cnc2C1c1ccc2ccccc2n1` (stereo in doubt) [Example 32, (S)-(4-methyl-2-(pyridin-2-yl)oxazol-5-yl)(4-(quinolin-2-yl)-6,7-dihydro-1H-imidazo[4,5-c]pyridin-5(4H)-yl)methanone], the AC50 under setting [1] was > 5 µM.
